We go through 1 compound from article PMC3090393, “New Noncovalent Inhibitors of Penicillin-Binding Proteins from Penicillin-Resistant Bacteria” (PLoS ONE, 2011).

SMILES strings stand for the structures.

The experiment concerns the target PBP2x 5204 (Streptococcus pneumoniae, UniProt P59676). Description: PBP2x 5204 enzymatic inhibition assay (S2d hydrolysis, DTNB). The format is biochemical, Streptococcus pneumoniae strain 5204. The method, then:
PBP2x-5204 from Streptococcus pneumonia and N-benzoyl-D-alanyl-thioglycolate S2d[21], [22] were prepared as previously described. All assays with PBP2x 5204 were carried out in 96-well microtiter plates (Brand, Wertheim, Germany). PBP2x 5204 (0.6 µM) was incubated in the presence of the potential inhibitors in 10 mM sodium phosphate buffer (pH 7.0) containing 70 mM D-alanine and 0.01 mg/mL BSA, for 4 h at 25°C. This preincubation was used to also detect slow binding inhibitors. After the preincubation, the RA of PBP2x 5204 was determined. The initial rate of hydrolysis of 1 mM S2d in the presence of 1 mM DTNB was determined by monitoring the increase in absorbance at 412 nm (DTNB: ε[Δ ε] = […]) using a microplate absorbance reader (Power Wave X, Biotek Instruments, Winooski, U.S.A.). The rate of spontaneous hydrolysis of S2d in the presence of the potential inhibitors was also determined in the absence of PBP2x 5204. All of the assays were carried out in triplicate. The determination of the RA of PBP2x 5204 in the absence of inhibitors was carried out six times on each plate. A test compound was considered as an inhibitor if the RA was <80%. In this case, to reveal false positives, the assays were also carried out under the same conditions in the presence of 0.01% Triton X-100. As described in the literature, promiscuous inhibitors (false positives) are slow binding, noncompetitive inhibitors. To avoid detailed kinetic investigations, it is possible to identify such compounds by carrying out the assays in the presence of Triton X-100[14], [19]. Promiscuous inhibitors show no inhibition in the presence of Triton X-100. The IC50 values in the presence of Triton X-100 were determined if the RAs were <50%. (RA: ∼50%, IC50∼c, c: concentration of compound in the assay; RA >50%, IC50 > c). The RA was measured over a range of concentrations, from which the IC50 values were determined by non-linear regression analysis, using Sigma Plot (Systat software) and fitting the data to the equation y = y0+(a×b)/(b+x)[23].

What is called IC50 is the concentration that inhibits the measured activity by half.

Chain of PBP2x 5204 (P59676 49-750): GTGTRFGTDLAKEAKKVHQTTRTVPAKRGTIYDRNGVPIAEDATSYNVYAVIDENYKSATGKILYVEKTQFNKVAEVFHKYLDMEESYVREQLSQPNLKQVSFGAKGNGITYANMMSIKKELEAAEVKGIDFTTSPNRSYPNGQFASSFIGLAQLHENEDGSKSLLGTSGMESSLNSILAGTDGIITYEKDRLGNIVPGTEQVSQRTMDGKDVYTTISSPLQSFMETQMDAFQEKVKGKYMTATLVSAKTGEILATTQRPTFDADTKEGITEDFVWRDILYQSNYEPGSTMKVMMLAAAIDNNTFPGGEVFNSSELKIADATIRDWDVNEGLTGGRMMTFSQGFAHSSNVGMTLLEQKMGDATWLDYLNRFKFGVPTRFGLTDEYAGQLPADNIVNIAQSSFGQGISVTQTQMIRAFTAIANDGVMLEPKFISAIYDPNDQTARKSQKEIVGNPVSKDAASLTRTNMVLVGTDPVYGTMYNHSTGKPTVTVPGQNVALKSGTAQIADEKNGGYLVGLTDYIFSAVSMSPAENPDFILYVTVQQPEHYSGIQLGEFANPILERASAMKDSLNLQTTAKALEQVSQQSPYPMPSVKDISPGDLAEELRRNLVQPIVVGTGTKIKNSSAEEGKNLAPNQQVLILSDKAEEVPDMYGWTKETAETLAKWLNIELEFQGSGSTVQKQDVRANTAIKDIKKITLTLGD

For the compound `CCCCOc1ccc2cc(S(=O)(=O)Nc3ccccc3C(=O)O)ccc2c1` [compound 1, 2-(6-butoxynaphthalene-2-sulfonamido)benzoic acid], the 50% inhibitory concentration (IC50) (read-out: PBP2x5204 IC50, in the presence of 0.01% Triton X-100) turned out to be 391 µM. Besides, under “residual activity of the enzyme at 500 µM inhibitor, 240 min”, the “PBP2x5204 RA [%]” value is listed as 38%.
